Reference: patent US20240041042A1, “1-(PYRIDYL)-5-AZINYLPYRAZOLE DERIVATIVES, AND THEIR USE FOR CONTROL OF UNDESIRED PLANT GROWTH” (Bayer Aktiengesellschaft, priority 2020, published 2024)
Read-outs that look alike come from different tables or passages of the source.

Columns and labels:
Assay type in all cases: in vivo
[1] = tested on: Abutilon theophrasti (ABUTH); test: Post-emergence herbicidal action against ABUTH; details: visual rating about 3 weeks after treatment vs untreated controls (100% = plants have died, 0% = like control plants)
Method in brief: (§1)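 Rates were 320 g/ha or below, applied as aqueous WP/EC spray with 0.5% additive (600 l/ha) onto one-leaf-stage plants. About 3 weeks later in the greenhouse, damage was scored visually against untreated plants on a 0–100% scale, where 100% means plants died.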

[2] = tested on: Alopecurus myosuroides (ALOMY); test: Post-emergence herbicidal action against ALOMY; details: visual rating about 3 weeks after treatment vs untreated controls (100% = plants have died, 0% = like control plants)
Method in brief: as §1

[3] = tested on: Digitaria sanguinalis (DIGSA); test: Post-emergence herbicidal action against DIGSA; details: visual rating about 3 weeks after treatment
Description: Seeds of monocotyledonous and dicotyledonous weeds and crop plants are placed in sandy loam in plastic or organic planting pots, covered with soil and cultivated in a greenhouse under controlled growth conditions. 2 to 3 weeks after sowing, the test plants are treated at the one-leaf stage. The compounds of the invention, formulated in the form of wettable powders (WP) or as emulsion concentrates (EC), are then sprayed onto the green parts of the plants as aqueous suspension or emulsion with addition of 0.5% additive at a water application rate of 600 l/ha (converted). After the test plants have been kept in the greenhouse under optimum growth conditions for about 3 weeks, the activity of the preparations is rated visually in comparison to untreated controls. For example, 100% activity=the plants have died, 0% activity=like control plants.
Tables B1 to B13 below show the effects of selected compounds of the general formula (I) according to Table 1 on various harmful plants and at an application rate corresponding to 320 g/ha or lower, which were obtained by the experimental procedure mentioned above. The appendices “a”, “b” and “c” give differentiation by dosage used with otherwise the same harmful plants tested.

[4] = tested on: Echinochloa crus-galli (ECHCG); test: Post-emergence herbicidal action against ECHCG
Method in brief: as §1

Lolium rigidum (LOLRI) = test: Post-emergence herbicidal action against LOLRI
Method in brief: as §1

[5] = tested on: Matricaria inodora (MATIN); test: Post-emergence herbicidal action against MATIN
Method in brief: as §1

[6] = tested on: Polygonum convolvulus (POLCO); test: Post-emergence herbicidal action against POLCO
Method in brief: as §1

Setaria viridis (SETVI) = test: Post-emergence herbicidal action against SETVI
Method in brief: as §1

Viola tricolor (VIOTR) = test: Post-emergence herbicidal action against VIOTR
Method in brief: as §1

Oryza sativa (ORYSA) = details: crop plant compatibility
Method in brief: (§2)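 Greenhouse crops in sandy loam sprayed post-emergence at the one-leaf stage, 2–3 weeks after sowing, with WP or EC formulations in water plus 0.5% additive at 600 l/ha. Damage rated visually about 3 weeks later versus untreated controls (0% = like control, 100% = dead); suffixes a–c denote different doses.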

[7] = tested on: Amaranthus retroflexus (AMARE); test: Post-emergence herbicidal action against AMARE
Method in brief: as §1

Avena fatua (AVEFA) = test: Post-emergence herbicidal action against AVEFA; details: visual rating about 3 weeks after treatment
Method in brief: as §1

[8] = tested on: Pharbitis purpurea (PHBPU); test: Post-emergence herbicidal action against PHBPU
Method in brief: as §1

[9] = tested on: Verconica persica (VERPE); test: Post-emergence herbicidal action against VERPE
Method in brief: as §1

Zea mays (ZEAMX) = details: for Post-emergence action against ZEAMX in % (crop plant compatibility): 20 g/ha, effect in comparison to untreated controls
Method in brief: as §2

[10] = 20 g/ha, effect vs untreated controls
[11] = 80 g/ha, visual rating about 3 weeks after treatment vs untreated controls (100% = plants have died, 0% = like control plants)
[12] = 320 g/ha, visual rating about 3 weeks after treatment

Row | Post-emergence action against ORYSA in % (Oryza sativa (ORYSA); [10]) | SMILES | Post-emergence action against ABUTH in % ([1]; 320 g/ha) | Post-emergence action against ALOMY in % ([2]; 320 g/ha) | Post-emergence action against DIGSA in % ([3]; 80 g/ha) | Post-emergence action against DIGSA in % ([3]; 320 g/ha) | Post-emergence action against ECHCG in % ([4]; dosage 80 g/ha) | Post-emergence action against ECHCG in % ([4]; dosage 320 g/ha) | Post-emergence action against LOLRI in % (Lolium rigidum (LOLRI); dosage 320 g/ha) | Post-emergence action against MATIN in % ([5]; dosage 320 g/ha) | Post-emergence action against POLCO in % ([6]; dosage 80 g/ha) | Post-emergence action against POLCO in % ([6]; dosage 320 g/ha) | Post-emergence action against SETVI in % (Setaria viridis (SETVI); dosage 80 g/ha) | Post-emergence action against SETVI in % (Setaria viridis (SETVI); dosage 320 g/ha) | Post-emergence action against VIOTR in % (Viola tricolor (VIOTR); 320 g/ha) | Post-emergence action against AMARE in % [7, 11] | Post-emergence action against AMARE in % [7, 12] | Post-emergence action against AVEFA in % (Avena fatua (AVEFA); 320 g/ha) | Post-emergence action against PHBPU in % ([8]; dosage 80 g/ha) | Post-emergence action against PHBPU in % ([8]; dosage 320 g/ha) | Post-emergence action against VERPE in % ([9]; 320 g/ha, VERPE) | also measured
1 | 0% | COC(=O)C(C)OC(=O)C(C)Oc1nn(-c2ccccn2)c(-c2cncc(F)c2)c1Br (mixture of isomers) [Example I-176] | 80% | 90% | 80% | 90% | 80% | 90% | 80% | 80% | 80% | 80% | 80% | 80% | 80% |  |  |  |  |  |  | Post-emergence action against LOLRI in % (Lolium rigidum (LOLRI); dosage 80 g/ha): 80%; Post-emergence action against ORYSA in % (Oryza sativa (ORYSA); 80 g/ha, effect in comparison to untreated controls): 10%
2 |  | COC(=O)COc1nn(-c2ncccc2F)c(-c2ccc(F)nc2)c1Cl [Example I-304] | 90% | 90% | 90% | 90% | 80% | 90% | 90% | 90% |  |  | 90% | 90% | 90% | 80% | 90% | 90% | 80% | 90% | 90% | Post-emergence action against ABUTH in % ([1]; 80 g/ha): 80%; Post-emergence action against MATIN in % ([5]; dosage 80 g/ha): 90%; Post-emergence action against VERPE in % ([9]; dosage 80 g/ha): 80%; Post-emergence action against VIOTR in % (Viola tricolor (VIOTR); 80 g/ha): 80%; Post-emergence action against ZEAMX in % (crop plant compatibility) (Zea mays (ZEAMX)): 20%
3 | 0% | CC(C)OC(=O)COc1nn(-c2ncccc2F)c(-c2ccc(F)nc2)c1C1CC1 [Example I-328] | 80% | 90% | 90% | 90% | 90% | 90% | 90% |  | 90% | 90% | 90% | 90% | 90% | 90% | 90% | 90% | 90% | 90% | 90% | Post-emergence action against ABUTH in % ([1]; 80 g/ha): 80%; Post-emergence action against ALOMY in % ([2]; 80 g/ha): 90%; Post-emergence action against AVEFA in % (Avena fatua (AVEFA); 80 g/ha): 90%; Post-emergence action against LOLRI in % (Lolium rigidum (LOLRI); dosage 80 g/ha): 90%; Post-emergence action against VERPE in % ([9]; dosage 80 g/ha): 90%; Post-emergence action against VIOTR in % (Viola tricolor (VIOTR); 80 g/ha): 80%; Post-emergence action against ZEAMX in % (crop plant compatibility) (Zea mays (ZEAMX)): 0%; Post-emergence action against ZEAMX in % (Zea mays (ZEAMX); crop plant compatibility, 80 g/ha, effect vs untreated controls): 0%
4 | 10% | CCOC(=O)COc1nn(-c2ncccc2F)c(-c2cncc(F)c2)c1C(F)(F)F [Example I-141] |  | 90% | 90% | 90% | 80% | 80% | 90% | 90% | 80% | 80% | 90% | 90% | 80% | 80% | 90% | 80% | 80% | 90% | 90% | Post-emergence action against MATIN in % ([5]; dosage 80 g/ha): 80%; Post-emergence action against VERPE in % ([9]; dosage 80 g/ha): 90%; Post-emergence action against VIOTR in % (Viola tricolor (VIOTR); 80 g/ha): 80%
